According to patent US20090202573A1, “POLYMERIC CONJUGATES CONTAINING POSITIVELY-CHARGED MOIETIES” (ENZON PHARMACEUTICALS, INC., priority 2006, published 2009):
d = 2'-deoxy (DNA); r = 2'-OH (RNA)

Assays:
Survivin mRNA [1] = experiment: Survivin mRNA downregulation in A549 cell model, RT-PCR (Examples 67, 69, 70, 71, 71 bis); type: cell-based, human
Procedure: This study was conducted to determine the effects of the positively charged polymers on Survivin mRNA expression. A549 human lung cells were transfected with each of compounds 33b-I-R4, 33b-I-R5 and 33a-I-R3 in concentrations of 1000 nM, 200 nM, 40 nM, 8 nM and 1.6 nM. […] Compound 33a-I-R3 ([RGD-TATC-S—S]7-^20K8arm PEG-SS-antisense Survivin LNA) includes the TAT peptide and antisense Survivin LNA. The Survivin mRNA expression in the A549 cells treated with each of the compounds was measured by RT-PCR one day after the treatment.
A549 human lung cancer cells were transfected with each of compound 33a-I-R2 and the naive antisense Survivin LNA. Compound 33a-I-R2 ([(Arg)9C—S—S]7-^20K8arm PEG-S—S-antisense Survivin LNA) includes seven polymer arm terminals connected to C(Arg)9 and one arm terminal connected to the antisense Survivin LNA via the intracellular releasable disulfide bond. The naive oligonucleotides (antisense Survivin LNA) were also transfected with the transfection agent lipofectamine.
A549 cells were transfected with each of compound 59 and the antisense Survivin LNA dimer. The dimer of the antisense Survivin LNA modified with a C6—SH tail (antisense Survivin LNA-C6—S—S—C6-antisense Survivin LNA) was also transfected with the transfection agent. Compound 59 contains a hydrazone-based releasable linker.
This study was conducted to determine whether the positively charged polymers containing a targeting agent is as effective as the positively charged polymers without a targeting agent and thus the polymers containing the targeting agent can be utilized for targeted delivery. A549 cells were transfected with each of compounds 33a-I-R1 (TATC-S—S)7-^20K8arm PEG-S—S-antisense Survivin LNA) and 33a-I-R3 ([RGD-TATC-S—S]7-^20K8arm PEG-S—S-antisense Survivin LNA). In compounds 33a-I-R1 and 33a-I-R3, seven polymer arm terminals are connected to C-TAT and C-TAT-RGD, respectively. The cells were also transfected with the antisense Survivin LNA modified with a SH—C6 tail with or without the transfection agent. […] This feature of the positively charged polymers is beneficial to target agent directed delivery of oligonucleotide therapeutics.
A549 human lung cancer cells were transfected with each of compound 33a-I-R1 (TATC-S—S)7-^20K8arm PEG-S—S-antisense Survivin LNA), compound 33a-II-R1 (TATC-S—S)7-^20K8arm PEG-S—S-scrambled Survivin LNA) and the native antisense Survivin LNA. Compound […] corresponds to compound […] except in that it includes mismatching nucleotides within the antisense Survivin LNA (scrambled Survivin LNA: 5′-s^mCsGs^mCsAsgsaststsasgsasasAs^mCs^mCst-3′). The naive antisense Survivin LNA was also transfected with the transfection agent.

Survivin mRNA [2] = experiment: Survivin mRNA downregulation in DU145 cell model (prostate cancer) (Example 68); type: cell-based; details: Example 68: DU145 cells, FIG. 19
Description: DU145 cells were transfected with the same compounds used in Example 67.

BCL2 mRNA = BCL2 mRNA downregulation, RT-PCR, A431 cells (Example 66); type: cell-based, human; details: without transfection agent, FIG. 17
Procedure: This study was conducted to determine whether the oligonucleotides uptaken by cancer cells downregulate specific gene expression involved in cancer. A431 cells were transfected with native oligonucleotides and compound 23a-I-R1 without transfection agent. The positively charged polymer conjugate contains TAT and BCL2 siRNA.

[3] = Example 71: A549 cells, polymers with or without targeting agent (RGD), FIG. 22

In the case of “(TATC-S—S)7-^20K8arm PEG-S—S-antisense Survivin LNA [Compound 33a-I-R1]”, the “Survivin mRNA expression” value (Survivin mRNA [1]; [3]) is reported as “downregulated Survivin mRNA expression”, the “Specific inhibition of Survivin mRNA expression” value (Survivin mRNA [1]; second Example 71: A549 cells, antisense versus scrambled (mismatching) Survivin LNA, FIG. 23) is reported as “significantly inhibited Survivin mRNA expression” and the “Survivin mRNA expression” value (Survivin mRNA [2]) is reported as “similarly observed”.
For “[(Arg)9C—S—S]7-^20K8arm PEG-S—S-antisense Survivin LNA [Compound 33a-I-R2]”, the “Survivin mRNA expression” value (Survivin mRNA [1]; Example 69: A549 cells, without the transfection agent, FIG. 20) was “significantly downregulated Survivin mRNA expression”.
With “[RGD-TATC-S—S]7-^20K8arm PEG-SS-antisense Survivin LNA [Compound 33a-I-R3]” the “Survivin mRNA expression” value (Survivin mRNA [1]; Example 67: A549 cells, 1000 nM to 1.6 nM, RT-PCR one day after treatment, without transfection agent, FIG. 18) was “significantly downregulated Survivin mRNA expression”, the “dose dependence of Survivin mRNA downregulation” value (Survivin mRNA [1]; Example 67: A549 cells, 1000, 200, 40, 8 and 1.6 nM, FIG. 18) was “dose-dependent” and the “Survivin mRNA expression” value (Survivin mRNA [1]; [3]) was “downregulated Survivin mRNA expression”. For the same substance, the “Survivin mRNA expression” value (Survivin mRNA [2]) was “significant down-regulation of Survivin mRNA expression”.
“native Bcl2 siRNA: unconjugated antisense Bcl2 siRNA (SEQ ID NOs: 4 and 5) (chain 1 GCAUGCGGCCUCUGUUUGATT; chain 2 UCAAACAGAGGCCGCAUGCTT; sugars from the 5' end r19 d2, backbone not given here)” was tested, and the “BCL2 mRNA expression” value (BCL2 mRNA) was “downregulated BCL2 mRNA expression dose-dependently”.
